Laboratory results published in paper PMC11062894, “Protein-based bandpass filters for controlling cellular signaling with chemical inputs” (Nature Chemical Biology, 2023).

Test system: GEMS receptors with CBPvene (Bcl2–LD3 and Bcl2high variants), STAT3-driven SEAP in HEK293T cells
Experiment: GEMS SEAP reporter assay, CBPvene (Bcl2high, LD3-v and Bcl2-v variants) with venetoclax
Format: cell-based
[1] = Supp Fig 10b, Bcl2-v4, venetoclax 316 nM
[2] = Supp Fig 10b, Bcl2-v4, venetoclax 1000 nM
[3] = Supp Fig 10b, Bcl2-v4, venetoclax 3160 nM
[4] = Supp Fig 10b, Bcl2-v4, venetoclax 10000 nM
[5] = Supp Fig 10b, Bcl2-v5, venetoclax 1 nM
[6] = Supp Fig 10b, Bcl2-v5, venetoclax 3.16 nM
[7] = Supp Fig 10b, Bcl2-v5, venetoclax 10 nM
[8] = Supp Fig 10b, Bcl2-v5, venetoclax 31.6 nM
[9] = Supp Fig 10b, Bcl2-v5, venetoclax 100 nM
[10] = Supp Fig 10b, Bcl2-v5, venetoclax 316 nM
[11] = Supp Fig 10b, Bcl2-v5, venetoclax 1000 nM
[12] = Supp Fig 10b, Bcl2-v5, venetoclax 3160 nM
[13] = Supp Fig 10b, Bcl2-v5, venetoclax 10000 nM
[14] = Supp Fig 10b, Bcl2-v6, venetoclax 1 nM
[15] = Supp Fig 10b, Bcl2-v6, venetoclax 3.16 nM
[16] = Supp Fig 10b, Bcl2-v6, venetoclax 10 nM
[17] = Supp Fig 10b, Bcl2-v6, venetoclax 31.6 nM
[18] = Supp Fig 10b, Bcl2-v6, venetoclax 100 nM
[19] = Supp Fig 10b, Bcl2-v6, venetoclax 316 nM
[20] = Supp Fig 10b, Bcl2-v6, venetoclax 1000 nM
[21] = Supp Fig 10b, Bcl2-v6, venetoclax 3160 nM
[22] = Supp Fig 10b, Bcl2-v6, venetoclax 10000 nM
[23] = Supp Fig 10b, Bcl2, venetoclax 1 nM
[24] = Supp Fig 10b, Bcl2, venetoclax 3.16 nM
[25] = Supp Fig 10b, Bcl2, venetoclax 10 nM
[26] = Supp Fig 10b, Bcl2, venetoclax 31.6 nM
[27] = Supp Fig 10b, Bcl2, venetoclax 100 nM
[28] = Supp Fig 10b, Bcl2, venetoclax 316 nM
[29] = Supp Fig 10b, Bcl2, venetoclax 1000 nM
[30] = Supp Fig 10b, Bcl2, venetoclax 3160 nM
[31] = Supp Fig 10b, Bcl2, venetoclax 10000 nM
[32] = Supp Fig 10c, Bcl2-v1, venetoclax 1 nM
[33] = Supp Fig 10c, Bcl2-v1, venetoclax 3.16 nM
[34] = Supp Fig 10c, Bcl2-v2, venetoclax 1 nM
[35] = Supp Fig 10c, Bcl2-v2, venetoclax 3.16 nM
[36] = Supp Fig 10c, Bcl2-v3, venetoclax 1 nM
[37] = Supp Fig 10c, Bcl2-v3, venetoclax 3.16 nM
[38] = Supp Fig 10c, Bcl2-v5, venetoclax 1 nM
[39] = Supp Fig 10c, Bcl2-v5, venetoclax 3.16 nM
[40] = Supp Fig 10c, Bcl2-v6, venetoclax 1 nM
[41] = Supp Fig 10c, Bcl2, venetoclax 1 nM
[42] = Supp Fig 10c, Bcl2, venetoclax 3.16 nM
[43] = SuppFigure 8a, LD3, venetoclax 1 nM
[44] = SuppFigure 8a, LD3, venetoclax 3.16 nM
[45] = SuppFigure 8a, LD3, venetoclax 100 nM
[46] = SuppFigure 8a, LD3, venetoclax 316 nM
[47] = SuppFigure 8a, LD3, venetoclax 1000 nM
[48] = SuppFigure 8a, LD3, venetoclax 3160 nM
[49] = SuppFigure 8a, LD3, venetoclax 10000 nM
[50] = SuppFigure 8a, LD3v1, venetoclax 1 nM
[51] = SuppFigure 8a, LD3v1, venetoclax 3.16 nM
[52] = SuppFigure 8a, LD3v1, venetoclax 100 nM
[53] = SuppFigure 8a, LD3v1, venetoclax 316 nM
[54] = SuppFigure 8a, LD3v1, venetoclax 1000 nM
[55] = SuppFigure 8a, LD3v1, venetoclax 3160 nM
[56] = SuppFigure 8a, LD3v1, venetoclax 10000 nM
[57] = SuppFigure 8a, LD3v2, venetoclax 1 nM
[58] = SuppFigure 8a, LD3v2, venetoclax 3.16 nM
[59] = SuppFigure 8a, LD3v2, venetoclax 100 nM
[60] = SuppFigure 8a, LD3v2, venetoclax 316 nM
[61] = SuppFigure 8a, LD3v2, venetoclax 1000 nM
[62] = SuppFigure 8a, LD3v2, venetoclax 3160 nM
[63] = SuppFigure 8a, LD3v2, venetoclax 10000 nM
[64] = SuppFigure 8a, LD3v3, venetoclax 1 nM
[65] = SuppFigure 8a, LD3v3, venetoclax 3.16 nM
[66] = SuppFigure 8a, LD3v3, venetoclax 100 nM
[67] = SuppFigure 8a, LD3v3, venetoclax 316 nM
[68] = SuppFigure 8a, LD3v3, venetoclax 1000 nM
[69] = SuppFigure 8a, LD3v3, venetoclax 3160 nM
[70] = SuppFigure 8a, LD3v3, venetoclax 10000 nM
[71] = SuppFigure 8b, LD3, venetoclax 1 nM
[72] = SuppFigure 8b, LD3, venetoclax 3.16 nM

CC1(C)CCC(CN2CCN(c3ccc(C(=O)NS(=O)(=O)c4ccc(NCC5CCOCC5)c([N+](=O)[O-])c4)c(Oc4cnc5[nH]ccc5c4)c3)CC2)=C(c2ccc(Cl)cc2)C1 [Venetoclax]
SEAP normalized (max=100) (Supp Fig 10b, Bcl2-v4, venetoclax 100 nM): 78.5961 | SEAP [1]: 14.4979 | SEAP normalized (max=100) [1]: 43.8128 | SEAP [2]: 9.936 | SEAP normalized (max=100) [2]: 30.0279 | SEAP [3]: 8.423 | SEAP normalized (max=100) [3]: 25.4557 | SEAP [4]: 7.624 | SEAP normalized (max=100) [4]: 23.0384 | SEAP [5]: 45.7217 | SEAP normalized (max=100) [5]: 92.4038 | SEAP [6]: 49.4803 | SEAP normalized (max=100) [6]: 100 | SEAP [7]: 40.0805 | SEAP normalized (max=100) [7]: 81.0029 | SEAP [8]: 46.2116 | SEAP normalized (max=100) [8]: 93.3938 | SEAP [9]: 42.8958 | SEAP normalized (max=100) [9]: 86.6926 | SEAP [10]: 30.6164 | SEAP normalized (max=100) [10]: 61.8759 | SEAP [11]: 14.0666 | SEAP normalized (max=100) [11]: 28.4288 | SEAP [12]: 10.2265 | SEAP normalized (max=100) [12]: 20.6679 | SEAP [13]: 6.4792 | SEAP normalized (max=100) [13]: 13.0945 | SEAP [14]: 50.15 | SEAP normalized (max=100) [14]: 13.184 | SEAP [15]: 55.0335 | SEAP normalized (max=100) [15]: 14.4678 | SEAP [16]: 53.9332 | SEAP normalized (max=100) [16]: 14.1785 | SEAP [17]: 141.748 | SEAP normalized (max=100) [17]: 37.2641 | SEAP [18]: 380.387 | SEAP normalized (max=100) [18]: 100 | SEAP [19]: 330.205 | SEAP normalized (max=100) [19]: 86.8077 | SEAP [20]: 170.706 | SEAP normalized (max=100) [20]: 44.877 | SEAP [21]: 26.4901 | SEAP normalized (max=100) [21]: 6.964 | SEAP [22]: 10.3289 | SEAP normalized (max=100) [22]: 2.715 | SEAP [23]: 34.2584 | SEAP normalized (max=100) [23]: 5.865 | SEAP [24]: 39.5038 | SEAP normalized (max=100) [24]: 6.763 | SEAP [25]: 88.7679 | SEAP normalized (max=100) [25]: 15.1973 | SEAP [26]: 235.479 | SEAP normalized (max=100) [26]: 40.3146 | SEAP [27]: 448.604 | SEAP normalized (max=100) [27]: 76.8023 | SEAP [28]: 584.102 | SEAP normalized (max=100) [28]: 100 | SEAP [29]: 347.384 | SEAP normalized (max=100) [29]: 59.4733 | SEAP [30]: 20.111 | SEAP normalized (max=100) [30]: 3.443 | SEAP [31]: 12.4887 | SEAP normalized (max=100) [31]: 2.138 | SEAP [32]: 26.1238 | SEAP normalized (max=100) [32]: 100 | SEAP [33]: 24.5196 | SEAP normalized (max=100) [33]: 93.8591 | SEAP [34]: 41.9684 | SEAP normalized (max=100) [34]: 37.8578 | SEAP [35]: 39.8265 | SEAP normalized (max=100) [35]: 35.9258 | SEAP [36]: 35.0656 | SEAP normalized (max=100) [36]: 94.2276 | SEAP [37]: 34.981 | SEAP normalized (max=100) [37]: 94.0003 | SEAP [38]: 25.6864 | SEAP normalized (max=100) [38]: 99.6735 | SEAP [39]: 25.7705 | SEAP normalized (max=100) [39]: 100 | SEAP [40]: 44.5051 | SEAP normalized (max=100) [40]: 24.1282 | SEAP [41]: 9.631 | SEAP normalized (max=100) [41]: 6.451 | SEAP [42]: 8.848 | SEAP normalized (max=100) [42]: 5.926 | Normalized data (SEAP) [43]: 18.1283 | Raw data (SEAP) [43]: 14.9284 | Normalized data (SEAP) [44]: 15.4665 | Raw data (SEAP) [44]: 12.7365 | Normalized data (SEAP) [45]: 62.0224 | Raw data (SEAP) [45]: 51.0746 | Normalized data (SEAP) [46]: 79.6476 | Raw data (SEAP) [46]: 65.5888 | Normalized data (SEAP) [47]: 100 | Raw data (SEAP) [47]: 82.3488 | Normalized data (SEAP) [48]: 64.1557 | Raw data (SEAP) [48]: 52.8314 | Normalized data (SEAP) [49]: 26.7094 | Raw data (SEAP) [49]: 21.9948 | Normalized data (SEAP) [50]: 73.3263 | Raw data (SEAP) [50]: 13.9463 | Normalized data (SEAP) [51]: 77.9742 | Raw data (SEAP) [51]: 14.8303 | Normalized data (SEAP) [52]: 93.9945 | Raw data (SEAP) [52]: 17.8773 | Normalized data (SEAP) [53]: 100 | Raw data (SEAP) [53]: 19.0195 | Normalized data (SEAP) [54]: 92.9583 | Raw data (SEAP) [54]: 17.6802 | Normalized data (SEAP) [55]: 77.7035 | Raw data (SEAP) [55]: 14.7788 | Normalized data (SEAP) [56]: 63.3664 | Raw data (SEAP) [56]: 12.052 | Normalized data (SEAP) [57]: 16.5083 | Raw data (SEAP) [57]: 13.4033 | Normalized data (SEAP) [58]: 16.1655 | Raw data (SEAP) [58]: 13.125 | Normalized data (SEAP) [59]: 55.5208 | Raw data (SEAP) [59]: 45.078 | Normalized data (SEAP) [60]: 68.4407 | Raw data (SEAP) [60]: 55.5679 | Normalized data (SEAP) [61]: 100 | Raw data (SEAP) [61]: 81.1913 | Normalized data (SEAP) [62]: 59.661 | Raw data (SEAP) [62]: 48.4395 | Normalized data (SEAP) [63]: 19.9233 | Raw data (SEAP) [63]: 16.176 | Normalized data (SEAP) [64]: 79.8276 | Raw data (SEAP) [64]: 14.5214 | Normalized data (SEAP) [65]: 77.8421 | Raw data (SEAP) [65]: 14.1602 | Normalized data (SEAP) [66]: 89.5467 | Raw data (SEAP) [66]: 16.2894 | Normalized data (SEAP) [67]: 90.6522 | Raw data (SEAP) [67]: 16.4905 | Normalized data (SEAP) [68]: 100 | Raw data (SEAP) [68]: 18.191 | Normalized data (SEAP) [69]: 92.956 | Raw data (SEAP) [69]: 16.9096 | Normalized data (SEAP) [70]: 54.34 | Raw data (SEAP) [70]: 9.885 | Normalized data (SEAP) [71]: 3.308 | Raw data (SEAP) [71]: 13.9036 | Normalized data (SEAP) [72]: 3.395 | Raw data (SEAP) [72]: 14.2688
